How the values were obtained:
[1] = molecular target: CAT-2B (Homo sapiens, UniProt P52569); conditions: read-out: Km for L-Arg; cited from earlier work
[2] = molecular target: CAT-1 (Homo sapiens, UniProt P30825); conditions: read-out: Km for L-Arg; cited from earlier work
[3] = tested on: purified T-cells; experiment: CD3ζ and phospho-CD3ζ expression in stimulated purified T-cells (flow cytometry); type: cell-based, human
Method: Peripheral blood mononuclear cells (PBMC) from normal donors were separated over Ficoll-Paque (Pharmacia Biotech, Uppsala, Sweden). PBMC were enriched over T-cell enrichment columns (R&D Systems, Minneapolis, Minn.). After 10 min. of incubation, the columns were washed and the obtained enriched T-cells were counted and tested for surface markers by flow cytometry. […].
Tissue culture dishes (100 mm) (Corning, N.Y.) were coated overnight at 4° C. with PBS containing 10 μg/ml of anti-CD3 (OKT-3 Ortho Pharmaceutical, Raritan, N.J.) and washed once with cold phosphate buffer saline (PBS). Two million purified T-cells were resuspended in complete RPMI-1640 (RPMI) containing approximately 1140 μM of L-arginine (BioWhittaker, Walkersville, Md.) or in RPMI-1640 without L-arginine (Arg-free-RPMI) (GIBCO, Invitrogen, Grand Island, N.Y.) containing 100 ng/ml of anti-CD28 (Becton Dickinson, San Jose, Calif.) and added to plates. Control media included RPMI without L-glutamine or […]. Unstimulated T-cells were placed in the same culture conditions as controls. […]
To determine CD3ζ expression, purified T-cells were incubated for 15 min at 4° C. with anti-CD3-FITC or the isotype control (Beckman-Coulter, Miami, Fla.) at 1 μg of antibody/10^6 cells. […] Fluorescence analysis was done using a Coulter-EPICS flow cytometer (Beckman-Coulter, Miami, Fla.).

[4] = tested on: Jurkat cells; experiment: CD3ζ chain expression in Jurkat cells with H. pylori sonicate or proteins; type: cell-based; conditions: NOHA 10 μg/ml; difference not statistically significant
Method: Jurkat cells were cultured for 24 h in medium with the H. pylori sonicate at concentrations ranging from 1 μg/ml to 50 μg/ml. CagA (2 μg/ml) (Austral Biologicals; San Ramon, Calif.), VacA (4 μg/ml) (Austral), H. pylori urease A (2 μg/ml) (Austral), H. pylori urease B (2 μg/ml) (Austral) and E. coli LPS (500 ng/ml) (Sigma-Aldrich; St Louis, Mo.) were also used. Jurkat and T-cells were counted and stained with FITC-conjugated anti-human CD3 (Beckman-Coulter; Miami, Fla.) for 20 min in the dark. After washing with PBS the cells were stained for 8 min with phycoerythrin (PE)-conjugated anti-human CD3ζ (Beckman-Coulter; Miami, Fla.) in PBS containing 50 μg/ml of digitonin. The cells were washed twice in PBS and analyzed in an EPICS XL Coulter Flow Cytometer. The results compare the percentage of cells expressing CD3ζ as well as the mean fluorescence intensity.
[…] After addition of the sonicate plus NOHA or sonicate plus L-arginine mixture to the Jurkat cells, 1.0 μCi of ^3H-thymidine (NEN) was added per well, the cells were incubated at 37° C. for 18 h, harvested onto filters and counted in a β-counter (Packard).

Sequence of CAT-2B (P52569 whole entry, species assumed): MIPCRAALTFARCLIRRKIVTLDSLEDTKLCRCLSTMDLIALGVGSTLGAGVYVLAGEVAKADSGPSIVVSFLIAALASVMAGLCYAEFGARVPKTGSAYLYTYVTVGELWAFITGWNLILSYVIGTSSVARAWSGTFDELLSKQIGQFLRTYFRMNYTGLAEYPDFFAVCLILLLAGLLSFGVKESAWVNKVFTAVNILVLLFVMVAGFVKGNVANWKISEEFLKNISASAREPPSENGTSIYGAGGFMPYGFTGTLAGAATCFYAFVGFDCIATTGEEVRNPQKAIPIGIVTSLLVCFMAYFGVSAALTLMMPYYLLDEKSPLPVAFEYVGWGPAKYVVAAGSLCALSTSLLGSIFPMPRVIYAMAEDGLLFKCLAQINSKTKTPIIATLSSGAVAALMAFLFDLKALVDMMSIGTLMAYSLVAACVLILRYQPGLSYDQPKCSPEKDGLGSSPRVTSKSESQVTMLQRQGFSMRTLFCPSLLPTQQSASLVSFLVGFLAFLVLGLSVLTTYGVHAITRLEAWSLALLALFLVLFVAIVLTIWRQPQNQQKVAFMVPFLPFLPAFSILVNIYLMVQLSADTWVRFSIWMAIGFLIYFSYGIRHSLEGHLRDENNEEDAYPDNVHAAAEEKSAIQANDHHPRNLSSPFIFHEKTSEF
Sequence of CAT-1 (P30825 whole entry): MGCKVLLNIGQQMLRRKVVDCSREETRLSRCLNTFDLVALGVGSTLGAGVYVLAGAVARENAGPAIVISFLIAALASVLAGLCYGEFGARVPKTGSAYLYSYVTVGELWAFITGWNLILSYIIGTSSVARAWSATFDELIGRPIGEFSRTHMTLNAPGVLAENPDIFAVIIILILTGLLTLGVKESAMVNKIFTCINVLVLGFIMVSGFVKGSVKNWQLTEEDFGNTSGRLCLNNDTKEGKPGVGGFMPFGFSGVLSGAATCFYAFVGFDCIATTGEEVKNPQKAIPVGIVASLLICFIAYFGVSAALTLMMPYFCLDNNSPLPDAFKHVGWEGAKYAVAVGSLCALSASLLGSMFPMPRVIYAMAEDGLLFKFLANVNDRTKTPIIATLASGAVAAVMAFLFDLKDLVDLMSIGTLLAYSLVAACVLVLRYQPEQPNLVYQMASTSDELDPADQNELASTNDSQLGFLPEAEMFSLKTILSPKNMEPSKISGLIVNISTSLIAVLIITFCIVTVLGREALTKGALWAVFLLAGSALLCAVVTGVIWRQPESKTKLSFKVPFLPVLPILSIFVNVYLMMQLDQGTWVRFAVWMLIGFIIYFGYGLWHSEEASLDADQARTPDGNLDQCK

Compound	Km [1] [µM]	Km [2] [µM]	re-expression of CD3ζ after addition of L-arginine to the culture media ([3]; L-arginine 1140 μM, T-cells stimulated in Arg-free-RPMI)	L-Arg concentrations that impair the re-expression of CD3ζ chain ([3]; stimulated T-cells, in vitro)	CD3ζ chain expression in Jurkat cells treated with H. pylori sonicate [4]
N=C(N)NCCC[C@H](N)C(=O)O [L-arginine]	100	100	rapid re-expression of CD3ζ	below 40 μM	–
NC(=NCCC[C@H](N)C(=O)O)NO [NOHA, NG-hydroxy-L-arginine]	–	–	–	–	partially inhibited the drop in CD3ζ chain expression

Source: patent US20040057926A1, “Modulation of the immune response through the manipulation of arginine levels” (LSU Medical Center, priority 2002, published 2004)
